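These data come from cells grown in 96-well plates and exposed to compound for 48 hours at five concentrations. TGI: concentration producing complete growth inhibition.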
What was measured:
Experiment in all cases: NCI tumour cell line growth inhibition, 48 h
SF-295 CNS = system: SF-295 CNS
RXF-631 renal = system: RXF-631 renal
DMS 273 small cell lung = system: DMS 273 small cell lung
M14 melanoma = system: M14 melanoma
CAKI-1 renal = system: CAKI-1 renal
LXFL 529 NSCLC = system: LXFL 529 NSCLC
HCT-15 colon = system: HCT-15 colon
HOP-92 NSCLC = system: HOP-92 NSCLC
KM12 colon = system: KM12 colon
SK-MEL-28 melanoma = system: SK-MEL-28 melanoma
NCI-H460 lung = system: NCI-H460 lung
SK-MEL-5 melanoma = system: SK-MEL-5 melanoma
CCRF-CEM leukemia = system: CCRF-CEM leukemia
K-562 leukemia = system: K-562 leukemia
OVCAR-4 ovarian = system: OVCAR-4 ovarian
HCT-116 colon = system: HCT-116 colon
HT29 colon = system: HT29 colon
HOP-62 NSCLC = system: HOP-62 NSCLC
SF-268 CNS = system: SF-268 CNS
OVCAR-5 ovarian = system: OVCAR-5 ovarian
NCI-H226 lung = system: NCI-H226 lung
U251 CNS = system: U251 CNS
UACC-257 melanoma = system: UACC-257 melanoma
DLD-1 colon = system: DLD-1 colon
TK-10 renal = system: TK-10 renal
MOLT-4 leukemia = system: MOLT-4 leukemia
SK-MEL-2 melanoma = system: SK-MEL-2 melanoma
A549 NSCLC = system: A549 NSCLC
KM20L2 colon = system: KM20L2 colon
SNB-19 CNS = system: SNB-19 CNS
HCC-2998 colon = system: HCC-2998 colon
HOP-18 NSCLC = system: HOP-18 NSCLC
RPMI-8226 leukemia = system: RPMI-8226 leukemia
SNB-75 CNS = system: SNB-75 CNS
NCI-H522 lung = system: NCI-H522 lung
IGROV1 ovarian = system: IGROV1 ovarian
786-0 renal = system: 786-0 renal
SK-OV-3 ovarian = system: SK-OV-3 ovarian
SR leukemia = system: SR leukemia
UO-31 renal = system: UO-31 renal
NCI-H23 lung = system: NCI-H23 lung
SW-620 colon = system: SW-620 colon
LOX IMVI melanoma = system: LOX IMVI melanoma
ACHN renal = system: ACHN renal
MALME-3M melanoma = system: MALME-3M melanoma
DMS 114 small cell lung = system: DMS 114 small cell lung
RXF 393 renal = system: RXF 393 renal
COLO 205 colon = system: COLO 205 colon
HL-60(TB) leukemia = system: HL-60(TB) leukemia
OVCAR-3 ovarian = system: OVCAR-3 ovarian
OVCAR-8 ovarian = system: OVCAR-8 ovarian
M19-MEL melanoma = system: M19-MEL melanoma
EKVX NSCLC = system: EKVX NSCLC
SNB-78 CNS = system: SNB-78 CNS
A498 renal = system: A498 renal
UACC-62 melanoma = system: UACC-62 melanoma

SMILES: CC(=O)O[C@H]1CC[C@@]2(C)C(CC[C@]3(C)C2CC[C@]2(C)Oc4c(C)cc(O)cc4C[C@@H]23)C1(C)C (stereo partly specified)
- TGI (SF-295 CNS): 5.09 µM
- TGI (RXF-631 renal): 19.4 µM
- TGI (DMS 273 small cell lung): 12.7 µM
- TGI (M14 melanoma): 27.5 µM
- TGI (CAKI-1 renal): 21.8 µM
- TGI (LXFL 529 NSCLC): 13.6 µM
- TGI (HCT-15 colon): 14.9 µM
- TGI (HOP-92 NSCLC): 18.2 µM
- TGI (KM12 colon): 22.6 µM
- TGI (SK-MEL-28 melanoma): 22.9 µM
- TGI (NCI-H460 lung): 16.5 µM
- TGI (SK-MEL-5 melanoma): 18.4 µM
- TGI (CCRF-CEM leukemia): 16.8 µM
- TGI (K-562 leukemia): 29.3 µM
- TGI (OVCAR-4 ovarian): 22.2 µM
- TGI (HCT-116 colon): 18.1 µM
- TGI (HT29 colon): 23.9 µM
- TGI (HOP-62 NSCLC): 30.6 µM
- TGI (SF-268 CNS): 21.4 µM
- TGI (OVCAR-5 ovarian): 23.6 µM
- TGI (NCI-H226 lung): 35.3 µM
- TGI (U251 CNS): 7.96 µM
- TGI (UACC-257 melanoma): 22.8 µM
- TGI (DLD-1 colon): 27.1 µM
- TGI (TK-10 renal): 29.3 µM
- TGI (MOLT-4 leukemia): 9.75 µM
- TGI (SK-MEL-2 melanoma): 21.4 µM
- TGI (A549 NSCLC): 21.2 µM
- TGI (KM20L2 colon): 19.2 µM
- TGI (SNB-19 CNS): 14.4 µM
- TGI (HCC-2998 colon): 22.2 µM
- TGI (HOP-18 NSCLC): 26.4 µM
- TGI (RPMI-8226 leukemia): 6.96 µM
- TGI (SNB-75 CNS): 8.12 µM
- TGI (NCI-H522 lung): 21.5 µM
- TGI (IGROV1 ovarian): 30 µM
- TGI (786-0 renal): 4.44 µM
- TGI (SK-OV-3 ovarian): 22.2 µM
- TGI (SR leukemia): 7.12 µM
- TGI (UO-31 renal): 14.3 µM
- TGI (NCI-H23 lung): 21.6 µM
- TGI (SW-620 colon): 5.71 µM
- TGI (LOX IMVI melanoma): 23.8 µM
- TGI (ACHN renal): 17.5 µM
- TGI (MALME-3M melanoma): 22.8 µM
- TGI (DMS 114 small cell lung): 26.7 µM
- TGI (RXF 393 renal): 7.09 µM
- TGI (COLO 205 colon): 29.7 µM
- TGI (HL-60(TB) leukemia): 14.7 µM
- TGI (OVCAR-3 ovarian): 25.7 µM
- TGI (OVCAR-8 ovarian): 23.8 µM
- TGI (M19-MEL melanoma): 25.8 µM
- TGI (EKVX NSCLC): 46.9 µM
- TGI (SNB-78 CNS): 21.8 µM
- TGI (A498 renal): 26 µM
- TGI (UACC-62 melanoma): 23.7 µM

Source: PubChem BioAssay (NCI)
